Results: patent US11040053B2, “Compositions and methods for activating “stimulator of interferon gene”13 dependent signalling” (CHINOOK THERAPEUTICS, INC., priority 2015, dated 2021)
Entries after “also recorded” stand apart in the source; their conditions may differ.

How the values were obtained:
[1] = biological target: T1, HAQ allele hSTING (Homo sapiens, UniProt Q86WV6, G230A/H232R/R293Q); assay: Differential scanning fluorometry (DSF) binding to purified hSTING HAQ allele; conditions: for hSTING Tm Shift HAQ: DSF, 1 mg/ml STING AA140-379, ligand 1 mM; for binding relative to OH reference compound, in words: Table 4 comment, HAQ allele hSTING
T1 construct: DNA encoding amino acids 140-379 (amino acid numbering corresponding to Swiss Prot Q86WV6); 6xHIS (N, cleaved yes); SUMO (N, cleaved yes); made in house; host or cells: Rosetta2 (DE3) E. coli
Method: (§1) Cells were grown in lysogeny broth at 37° C. until a […] absorbance of 0.6 was reached. […] Cell pellets were re-suspended on ice in a buffer containing 50 mM Tris hydrochloride (Tris-HCl) pH 7.5, 500 mM sodium chloride (NaCl), 20 mM imidazole, 10% glycerol, 1 mM tris(2-carboxyethyl)phosphine hydrochloride (TCEP) and protease inhibitor tablet (Pierce) (Buffer A). Cells were lysed using an S-450D sonifier (Emmerson industrial) on ice. […] Protein was aliquoted, flash frozen in liquid nitrogen and stored at −80° C. until use.
(§2) The protein is heated in the presence of a dye that binds to and fluoresces in hydrophobic environments. The protein is thermally denatured by heating resulting in increased dye binding to the unfolded protein and fluorescence. The temperature midpoint (Tm) of a proteins denaturation is established by calculating the half maximal value of the denaturation curve. The temperature midpoint of the protein in the presence of a ligand is directly related to the affinity of the ligand for the protein and therefore its ability to stabilize the protein at higher temperatures.
(§3) Samples were placed in hard shell PCR plate (Bio-Rad). The fluorescence as a function of temperature was recorded in a CFX 96 real time PCR machine (Bio-Rad) reading on the HEX channel, excitation 450-490, emission 560-580 nm. The temperature gradient was from 15-80° C. ramping 0.5° C. per 15 seconds and recording every 0.5° C. After subtraction of the background signal from a sample lacking protein and ligand. The midpoint temperature (Tm) was calculated by fitting the curves of the fluorescence as a function of temperature to a Boltzmann sigmoidal function (Graph Pad Prism).

[2] = biological target: T2, wild type (WT) STING allele (Homo sapiens, UniProt Q86WV6, H232R); assay: Cytokine transcript induction (qRT-PCR) in STING^WT/WT hPBMCs; assay type: cell-based; conditions: FIGS. 7A-B, 2 hours stimulation, 100 μM to 0.1 μM
T2 construct: one donor was homozygous for the wild type (WT) STING allele; endogenous in cells; host or cells: human PBMCs, donor STING WT/WT
Method: (§4) The induction of type I interferon was measured in human primary blood mononuclear cells (hPBMCs) to evaluate the potency of mono- or di-F-CDN compounds as described herein. hPBMCs from two unique donors were used: one donor was homozygous for the wild type (WT) STING allele (STING^WT/WT) and the other donor was homozygous for the so-called reference (REF) STING allele (STING^REF/REF). The STING genotype of these donors was determined by PCR amplification and sequencing: genomic DNA was isolated from 10^4 hPBMCs using Quick Extract DNA Extraction Solution (Epicentre) and was used to amplify regions of exon 3, 6, and 7 of the human STING gene.
(§5) Cells were incubated at 37° C., 5% CO2 with concentrations ranging from 100 μM to 0.1 μM of each CDN. After 2 hours (FIGS. 7 and 8) or 2 hours and 6 hours (FIGS. 9-13) stimulation, cells were harvested by centrifugation and washed once with phosphate-buffered saline. Cellular RNA was isolated using the Aurum Total RNA 96 Kit and cDNA was synthesized using the iScript cDNA Synthesis Kit. Target and reference gene expression was assessed by real-time qRT-PCR using PrimePCR probe assays and the CFX96 gene cycler (all reagents and equipment from BioRad). Normalized IFNβ expression was expressed relative to untreated cells. Target genes included type I interferon (IFNβ), Th1-associated cytokines (IFNγ, IL-12p40) and NF-kB dependent inflammatory cytokines (TNFα, IL-6). Reference genes included GUSB alone (FIGS. 7 and 8) or GUSB and HSP90AB1 (FIGS. 9-13).

[3] = biological target: T3, reference (REF) STING allele (Homo sapiens, UniProt Q86WV6); assay: Cytokine transcript induction (qRT-PCR) in STING^REF/REF hPBMCs; assay type: cell-based; conditions: for cytokine responses (IFNβ, TNFα, IL-6, IFNγ, IL-12p40 expression), in words: FIGS. 9B-13B, 2 hours and 6 hours stimulation
T3 construct: endogenous in cells
Method: as §4, §5

[4] = biological target: T4, hSTING HAQ allele (Homo sapiens, UniProt Q86WV6, G230A/H232R/R293Q/R71H); assay: IRF-3 inducible secreted luciferase reporter in THP1-Dual cells without digitonin; assay type: cell-based; conditions: for EC50: without digitonin in THP1 cells (HAQ allele); for activity relative to OH reference compound, in words: Table 5 comment, THP1 cells without digitonin
T4 construct: a human monocyte cell line containing the hSTING HAQ allele; host or cells: THP1-Dual cells
Method: After 30 minutes, cells were washed and fresh RPMI media containing 10% FBS was added, and cells were incubated at 37° C. with 5% CO2 Cell culture supernatants from each sample were collected after overnight incubation, and 10 μL of the cell culture supernatants was added to 50 μL QUANTI-Luc reagent (Invivogen). Type I interferon activation was determined by measuring secreted luciferase levels on a SpectraMax M3 spectrophotometer (Molecular Devices). The EC50 value was determined from the dose-response curve for the 10 concentrations from the serial dilution of the reference compounds and compounds of the invention tested in this assay as listed in Table 5.

[5] = system: B16.SIY cells; assay: B16.SIY melanoma mouse model, intra-tumoral injection; assay type: in vivo, C57BL/6 mice; conditions: FIG. 14B, 5 μg IT, day 7 post-IT injection, vs HBSS control
Method: To determine whether the derivative molecules elicit anti-tumor immunity, 6-8 week old female C57BL/6 mice (8 mice per group) were implanted with B16.SIY cells (5×10^5 cells in 100 μL PBS). Mice were treated with reference compound 3′3′-RR-(A)(A) and di-F compound 3′3′-RR-(2′F-A)(2′F-A) (5, 50, 100 μg in a total volume of 40 μL HBSS), or HBSS vehicle control. Treatments began when tumors reached a volume of approximately 100 mm^3, on day 9 post tumor implantation. The CDN compounds were administered by […] injection into the center of the tumor (IT) using a 27 gauge needle. Mice were bled on day 16 post tumor implantation and PBMCs were isolated by Ficoll gradient (Miltenyi Biotech). 1×10^5 PBMCs were pre-incubated with anti-CD16/32 monoclonal antibody to block potential nonspecific binding, and labeled with PE-MHC class I pentamer (Proimmune) consisting of murine H-2Kb complexed to […] (SIY, SEQ ID NO: 16) peptide, anti-TCRβ-AF700 (H57-597), anti-CD8-Pacific Blue (53-6.7), anti-CD4-Pacific Orange (RM4-5) (all antibodies from BioLegend) and the Fixable Viability Dye eFluor 450 (eBioscience). Stained cells were analyzed using FACS Versa cytometer with FACSDiva software (BD). Data analysis was conducted with FlowJo software (Tree Star).

[6] = biological target: T5, hSTING(REF) (Homo sapiens, UniProt Q86WV6); assay: IFN-β luciferase reporter in HEK293T cells stably expressing hSTING(REF), digitonin permeabilization; conditions: FIGS. 6A-B, 0.1 μM to 100 μM and 6.25 μM CDN
Target sequence in this assay (Q86WV6 whole entry, the tested form may be a part): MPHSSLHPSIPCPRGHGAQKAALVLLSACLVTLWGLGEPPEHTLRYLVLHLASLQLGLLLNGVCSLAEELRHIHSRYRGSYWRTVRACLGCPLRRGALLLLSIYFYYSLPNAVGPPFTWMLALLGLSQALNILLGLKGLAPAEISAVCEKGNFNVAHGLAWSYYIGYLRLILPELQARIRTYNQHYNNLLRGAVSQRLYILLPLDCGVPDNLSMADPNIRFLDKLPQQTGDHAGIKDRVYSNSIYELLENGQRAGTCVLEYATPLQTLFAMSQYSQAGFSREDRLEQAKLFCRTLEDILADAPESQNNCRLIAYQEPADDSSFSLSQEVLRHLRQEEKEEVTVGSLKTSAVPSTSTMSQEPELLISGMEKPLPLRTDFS
Method: 24 hours later, cells were stimulated with native and synthetic CDN derivative molecules using digitonin permeabilization to ensure uniform uptake.
After 20 min, the stimulation mixtures were removed and 200 ul of DMEM media supplemented with 10% (vol/vol) fetal bovine serum, 1% L-Glutamine, and 1% Penicillin/Streptomycin was added. Cells were incubated an additional 6 hours (37° C., 5% CO2) and then cell lysates were prepared and reporter gene activity measured on a Spectramax M3 luminometer using the Dual-Glo Luciferase Assay System (Promega, catalog #E2920) as described by the manufacturer. IFNβ firefly luciferase reporter gene activity was normalized to TK renilla luciferase gene activity and plotted as fold induction over activity in unstimulated cells (mean+/−s.e.m.).

[7] = biological target: hSTING(WT) (Homo sapiens, UniProt Q86WV6, H232R); assay: Differential scanning fluorometry (DSF) binding to purified hSTING WT; design: DNA encoding amino acids 140-379 (amino acid numbering corresponding to Swiss Prot Q86WV6); 6xHIS (N, cleaved yes); SUMO (N, cleaved yes); made in house; host or cells: Rosetta2 (DE3) E. coli; conditions: for hSTING Tm Shift WT: DSF, 1 mg/ml STING AA140-379, ligand 1 mM; for binding relative to OH reference compound, in words: Table 4 comment, wild type hSTING
Method: as §1, §2, §3

[8] = biological target: T5, hSTING(REF); assay: Differential scanning fluorometry (DSF) binding to purified hSTING REF allele; design: DNA encoding amino acids 140-379 (amino acid numbering corresponding to Swiss Prot Q86WV6); 6xHIS (N, cleaved yes); SUMO (N, cleaved yes); made in house; host or cells: Rosetta2 (DE3) E. coli; conditions: for hSTING Tm Shift REF: DSF, 1 mg/ml STING AA140-379, ligand 1 mM; for binding relative to OH reference compound, in words: Table 4 comment, REF allele hSTING
Method: as §1, §2, §3
Target sequence in this assay (Q86WV6 140-379): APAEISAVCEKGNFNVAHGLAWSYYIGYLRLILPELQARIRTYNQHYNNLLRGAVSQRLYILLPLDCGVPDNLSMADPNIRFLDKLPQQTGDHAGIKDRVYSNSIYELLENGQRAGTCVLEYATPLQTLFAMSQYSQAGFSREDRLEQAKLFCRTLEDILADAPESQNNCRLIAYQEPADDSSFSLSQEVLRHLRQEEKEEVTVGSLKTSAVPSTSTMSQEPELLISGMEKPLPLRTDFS

[9] = biological target: T6, human-STING(E149-S379)H232R protein (Homo sapiens, UniProt Q86WV6, H232R); assay: Surface Plasmon Resonance binding to hSTING WT; conditions: Biacore T200, 15° C., steady-state analysis
T6 construct: His6 (C); made in house; host or cells: E. coli
Method: Binding of the mono- and di-F CDN compounds was assessed using Surface Plasmon Resononce to determine a binding constant. An E. coli expression construct (human-STING[E149-S379]H232R) was prepared harboring the protein sequence:
Aliquots were prepared and stored at −80° C. in 30 mM Tris pH 7.5/100 mM NaCl/10% glycerol.
N-terminal avi-tagged human-STING(E149-S379)H232R protein was immobilized (2500 RUs) on a streptavidin chip at 15° C. in a Biacore T200 (GE Healthcare). Titrations of cyclic dinucleotides (CDNs as indicated in Table 6) in 30 mM Tris pH 7.5/50 mM NaCL/0.005% Tween 20/1 mM DTT/2% DMSO, were profiled (30 μLs/min, 180 seconds for sample contact/120 seconds for dissociation) against hSTING at 15° C. Kinetic analysis of the data was performed using Biacore T200 Evaluation software. Steady-state analysis of the data was performed using Graphpad Prism 6.0 software, using one site-specific binding algorithm (Equation is Y=Bmax*X/(Kd+X)).

T4 sequence (Q86WV6 whole entry R71H/G230A/H232R/R293Q): as the sequence (Q86WV6 whole entry, the tested form may be a part) above, with R71H, G230A, H232R, R293Q counted along it
T3 sequence (Q86WV6 whole entry): as the sequence (Q86WV6 whole entry, the tested form may be a part) above
T1 sequence (Q86WV6 140-379 G230A/H232R/R293Q limits assumed): as the sequence (Q86WV6 140-379) above, with G91A, H93R, R154Q counted along it
hSTING(WT), sequence (Q86WV6 140-379 H232R): as the sequence (Q86WV6 140-379) above, with H93R counted along it
T6 sequence (Q86WV6 with tags, fused parts or gaps H232R): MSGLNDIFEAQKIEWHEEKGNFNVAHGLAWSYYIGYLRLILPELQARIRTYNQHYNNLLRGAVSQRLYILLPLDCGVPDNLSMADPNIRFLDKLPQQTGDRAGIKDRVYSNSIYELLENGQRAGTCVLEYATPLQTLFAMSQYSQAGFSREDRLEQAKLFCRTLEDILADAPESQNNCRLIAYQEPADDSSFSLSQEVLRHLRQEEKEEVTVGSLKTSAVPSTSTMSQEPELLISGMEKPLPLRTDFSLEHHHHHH
T2 sequence (Q86WV6 whole entry H232R): as the sequence (Q86WV6 whole entry, the tested form may be a part) above, with H232R counted along it

Structure (SMILES) | hSTING Tm Shift HAQ [1] [°C] | relative normalized IFNβ expression, in words [2] | relative normalized IFNβ expression, in words ([3]; FIGS. 8A-B, 2 hours stimulation, 100 μM to 0.1 μM) | EC50 [4] [µM] | percent of SIY-specific CD8+ T cells in PBMCs, in words [5] | IFNβ luciferase reporter induction by hSTING(REF), in words [6] | hSTING Tm Shift WT [7] [°C] | hSTING Tm Shift REF [8] [°C] | cytokine responses (IFNβ, TNFα, IL-6, IFNγ, IL-12p40 expression), in words [3] | Kd [9] [µM] | binding relative to OH reference compound, in words [1] | activity relative to OH reference compound, in words [4] | binding relative to OH reference compound, in words [7] | binding relative to OH reference compound, in words [8]
Nc1ncnc2c1ncn2[C@@H]1O[C@@H]2CO[P@@](=O)(S)O[C@H]3[C@@H](O)[C@H](n4cnc5c(N)ncnc54)O[C@@H]3CO[P@@](=O)(S)O[C@H]2[C@H]1O [3'3'-RR-(A)(A), reference compound] | 15.5 | induced similar levels of IFNβ; also recorded: induced higher levels of IFNβ transcript when compared to the 3′3′-(A)(A) compound | did not stimulate production of appreciable IFNβ transcript levels | 25 | elicited significantly SIY-specific CD8^+ T cells | responded poorly | 9.6 | 5.7 | – | – | – | – | – | –
Nc1ncnc2c1ncn2[C@@H]1O[C@@H]2CO[P@@](=O)(S)O[C@H]3[C@@H](F)[C@H](n4cnc5c(N)ncnc54)O[C@@H]3CO[P@@](=O)(S)O[C@H]2[C@H]1O [Compound 22, (2R,3R,3aR,5R,7aR,9R,10R,10aS,12R,14aR)-2,9-bis(6-amino-9H-purin-9-yl)-3-fluoro-10-hydroxy-5,12-dimercaptooctahydro-2H,7H-difuro[3,2-d:3′,2′-j][1,3,7,9]tetraoxa[2,8]diphosphacyclododecine 5,12-dioxide] | 16.0 | – | – | 59 | – | – | 9.4 | 5.4 | able to elicit cytokine responses at 6 hours stimulation with 100 μM of compound | 1.28 | – | – | – | –
Nc1nc2c(ncn2[C@@H]2O[C@@H]3CO[P@@](=O)(S)O[C@H]4[C@@H](O)[C@H](n5cnc6c(N)ncnc65)O[C@@H]4CO[P@@](=O)(S)O[C@H]3[C@H]2F)c(=O)[nH]1 [Compound 23, 2-amino-9-((2R,3R,3aR,5R,7aR,9R,10R,10aS,12R,14aR)-9-(6-amino-9H-purin-9-yl)-3-fluoro-10-hydroxy-5,12-dimercapto-5,12-dioxidooctahydro-2H,7H-difuro[3,2-d:3′,2′-j][1,3,7,9]tetraoxa[2,8]diphosphacyclododecin-2-yl)-1,9-dihydro-6H-purin-6-one] | 25.9 | – | – | 15 | – | – | 14.7 | 9.5 | induced more robust dose-dependent responses of each of the cytokines tested | 0.311 | improved binding | improved activity | improved binding | improved binding
Nc1nc2c(ncn2[C@@H]2O[C@@H]3CO[P@@](=O)(S)O[C@H]4[C@@H](F)[C@H](n5cnc6c(N)ncnc65)O[C@@H]4CO[P@@](=O)(S)O[C@H]3[C@H]2O)c(=O)[nH]1 [Compound 24, 2-amino-9-((2R,3R,3aS,5R,7aR,9R,10R,10aR,12R,14aR)-9-(6-amino-9H-purin-9-yl)-10-fluoro-3-hydroxy-5,12-dimercapto-5,12-dioxidooctahydro-2H,7H-difuro[3,2-d:3′,2′-j][1,3,7,9]tetraoxa[2,8]diphosphacyclododecin-2-yl)-1,9-dihydro-6H-purin-6-one] | 28.8 | – | – | 13 | – | – | 15.9 | 9.7 | induced more robust dose-dependent responses of each of the cytokines tested | 0.037 | improved binding | improved activity | improved binding | improved binding
